Legend:
[1] = molecular target: T1, human erythrocyte-derived acetylcholine esterase (Homo sapiens, UniProt P22303); test: Determination of the activity to inhibit the acetylcholine esterase of the crystals (Ellman method), Experimental Example 5; format: biochemical; conditions: at least three experiments
T1 construct: Acetylcholinesterase of human erythrocyte origin (Sigma Chemical Co.); purchased Sigma Chemical Co; host or cells: human erythrocytes (natural source)
Method: The activity to inhibit the acetylcholine esterase of the crystals obtained in Example 1 was determined according to the acetylthiocholine method (the Ellman method) by the use of a human erythrocyte-derived acetylcholine esterase.
A human erythrocyte-derived acetylcholine esterase (Sigma Chemical Company) was dissolved into distilled water to obtain a standard enzyme preparation with an enzyme concentration of 0.2 IU/mL. […]
The activity to inhibit the acetylcholine esterase of the crystals obtained in Example 1 was determined according to the acetylthiocholine method (the ElIman method) by the use of a human erythrocyte-derived acetylcholine esterase.
A human erythrocyte-derived acetylcholine esterase (Sigma Chemical Company) was dissolved into distilled water to obtain a standard enzyme preparation with an enzyme concentration of 0.2 IU/mL. […] As soon as 50 μl of a 4-mM solution of acetylthiocholine iodide (Sigma Chemical Company) was added and shaking was started again, every increment in absorbance at the wavelength of 414 nm at an interval of 30 seconds was determined for 10 minutes. R=5.74×10^−7×ΔA (wherein R indicates an enzyme activity (mol) and ΔA indicates an increment in absorbance at the wavelength of 414 nm). […] Furthermore, the activity to inhibit the acetylcholine esterase of distigmine was determined in a manner similar to that described in the above method.

[2] = Stability test, Experimental Example 7; format: physicochemical
Method: A number of specimens of the crystals obtained in Example 1 were stored under the following conditions and then their changes in the property and the remaining percent were determined.
Storing conditions: 1. 60° C. for 3 months (in a brown glass bottle, closed); 2. 45° C., the relative humidity of 75% for 3 months (in a brown glass bottle, closed); 3. 40° C., the to relative humidity of 75% for 3 months (in a brown glass bottle, opened); 4. irradiated with a xenon lamp (60000 lux) for 20 hours (1.2 million lux/hour) (on a Petri dish covered with a polyvinylidene chloride film).

T1 sequence (P22303 32-617 isoform P22303-2 limits assumed): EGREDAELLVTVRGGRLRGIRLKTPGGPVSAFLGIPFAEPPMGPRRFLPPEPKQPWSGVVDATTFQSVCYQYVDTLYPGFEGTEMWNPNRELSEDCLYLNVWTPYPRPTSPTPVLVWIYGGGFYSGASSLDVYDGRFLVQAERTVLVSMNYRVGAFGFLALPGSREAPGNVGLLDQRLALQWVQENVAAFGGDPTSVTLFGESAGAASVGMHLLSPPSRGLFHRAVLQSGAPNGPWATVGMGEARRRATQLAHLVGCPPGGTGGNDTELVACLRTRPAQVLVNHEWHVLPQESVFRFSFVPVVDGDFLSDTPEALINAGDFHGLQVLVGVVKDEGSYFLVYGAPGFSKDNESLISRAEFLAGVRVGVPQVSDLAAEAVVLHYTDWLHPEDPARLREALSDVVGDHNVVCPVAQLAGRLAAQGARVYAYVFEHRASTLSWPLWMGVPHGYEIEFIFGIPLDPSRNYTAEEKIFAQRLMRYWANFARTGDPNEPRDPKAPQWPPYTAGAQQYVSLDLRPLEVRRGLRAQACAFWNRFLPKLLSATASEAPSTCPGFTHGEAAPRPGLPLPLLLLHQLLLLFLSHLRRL

O=C(CCC1CCN(Cc2cccc(F)c2)CC1)c1cc2c3c(c1)CCN3C(=O)CC2 [Example 1, 8-[3-[1-[(3-fluorophenyl)-methyl]-4-piperidinyl]-1-oxopropyl]-1,2,5,6-tetrahydro-4H-pyrrolo-[3,2,1-ij]quinolin-4-one]
IC50 [1]: 6.6 nM
Remaining percent (%) ([2]; storing condition 1 (60° C./3 months), brown glass bottle, closed): 99.8%
Remaining percent (%) ([2]; storing condition 2 (40° C./75% RH, closed), 3 months, brown glass bottle): 101.6%
Remaining percent (%) ([2]; storing condition 3 (40° C./75% RH, open), 3 months, brown glass bottle): 100.2%
Remaining percent (%) ([2]; storing condition 4 (Xenon lamp/20 hs.), 60000 lux): 100.1%
stability (in words) ([2]; storing conditions 1 to 4): any change in the property and any decrease in the remaining percent were not observed
